Measured values reported in ChEMBL document CHEMBL1150703, “Plants as sources of antimalarial drugs, Part 4: Activity of Brucea javanica fruits against chloroquine-resistant Plasmodium falciparum in vitro and against Plasmodium berghei in vivo” (J Nat Prod, 1987).
≈ marks a conversion by molar mass, not a printed value.

How the values were obtained:
Plasmodium falciparum [1] = assay: Antimalarial activity against multidrug-resistant Plasmodium falciparum K1 infected human erythrocytes assessed by [3H]hypoxanthine uptake; type: functional, organism-based
Plasmodium berghei [2] = assay: Antimalarial activity as reduced parasitaemia at day 4 against Plasmodium berghei N infected TSW mice (Mus musculus) at 9 mg/kg perorally dosed 3 hrs post infection then daily; type: functional; details: route oral
Plasmodium berghei [3] = assay: Antimalarial activity as reduced parasitaemia at day 4 against Plasmodium berghei N infected TSW mice (Mus musculus) perorally dosed 3 hrs post infection then daily; type: functional; details: po
Plasmodium berghei [4] = assay: Antimalarial activity as reduced parasitaemia at day 4 against Plasmodium berghei N infected TSW mice (Mus musculus) at 3 mg/kg peroral dose 3 hrs post infection then daily; type: functional; details: route oral
[5] = (§1) Toxicity in Plasmodium berghei N-infected TSW mice (Mus musculus) assessed as mortality before day 5 at 9 mg/kg, perorally administered 3 hrs after infection daily for 4 consecutive days; type: organism-based; parameters: dose 9 mg/kg, route oral; details: TSW, in vivo, po, read-out: Activity
Mus musculus [6] = assay: as §1; type: organism-based; parameters: dose 9 mg/kg, route oral; details: in vivo, po, 3 h
Mus musculus [7] = assay: Toxicity in Plasmodium berghei N-infected TSW mice (Mus musculus) assessed as toxic deaths before day 5 at 3 mg/kg, perorally administered 3 hrs after infection daily for 4 consecutive days; type: organism-based; parameters: dose 3 mg/kg, route oral; details: in vivo, po
Plasmodium falciparum [8] = assay: Antimalarial activity against multidrug-resistant Plasmodium falciparum K1 in human erythrocytes as inhibition of [3H]hypoxanthine uptake; type: functional, organism-based

Structure (SMILES)	IC50 (Plasmodium falciparum [1]) [µg/mL]	ED50 (Plasmodium berghei [3]) [mg/kg/day]	ED90 (Plasmodium berghei [3]) [mg/kg/day]	inhibition in vivo at 3 mg/kg (Plasmodium berghei [4]) [%]	further results
COC(=O)[C@]12OC[C@]34[C@H]([C@@H](O)[C@@H]1O)[C@@]1(C)CC(=O)C(O)=C(C)[C@@H]1C[C@H]3OC(=O)[C@H](OC(=O)/C=C(\C)C(C)(C)OC(C)=O)[C@@H]24 [BRUCEANTINOL]	0.002 (≈ 0.0033 µM)	–	–	–	–
COC(=O)[C@@]12OC[C@]34[C@H]([C@@H](O)[C@@H]1O)[C@@]1(C)CC(=O)C(O)=C(C)[C@@H]1C[C@H]3OC(=O)[C@H](OC(=O)/C=C(\C)C(C)C)[C@@H]24 [BRUCEANTIN]	0.0008 (≈ 0.00146 µM)	–	–	–	–
COC(=O)[C@@]12OC[C@]34[C@H]([C@@H](O)[C@@H]1O)[C@@]1(C)CC(=O)C(O)=C(C)[C@@H]1C[C@H]3OC(=O)[C@H](OC(=O)CC(C)C)[C@@H]24 [BRUCEINE A]	0.011 (≈ 0.0211 µM)	3.36	26.7	–	inhibition in vivo at 9 mg/kg (Plasmodium berghei [2]): 72%
COC(=O)[C@@]12OC[C@]34[C@H]([C@@H](O)[C@@H]1O)[C@@]1(C)CC(=O)C(O)=C(C)[C@@H]1C[C@H]3OC(=O)[C@H](OC(C)=O)[C@@H]24 [BRUCEINE B]	0.011 (≈ 0.0229 µM)	0.9	2.82	95	mortality at 3 h [5]: 100%
COC(=O)[C@]12OC[C@]34[C@H]([C@@H](O)[C@@H]1O)[C@@]1(C)CC(=O)C(O)=C(C)[C@@H]1C[C@H]3OC(=O)[C@H](OC(=O)/C=C(\C)C(C)(C)O)[C@@H]24 [BRUCEINE C]	0.005 (≈ 0.00886 µM)	–	–	40	Activity (Mus musculus [6]): Toxic
CC1=CC(=O)[C@@H](O)[C@]2(C)[C@H]3[C@@H](O)[C@H](O)[C@]4(C)OC[C@@]35[C@@H](C[C@@H]12)OC(=O)[C@H](O)[C@]54O [BRUCEINE D]	0.015 (≈ 0.0365 µM)	2.79	8.19	50	Activity (Mus musculus [7]): Non-toxic
COC(=O)[C@]12OC[C@]34[C@H]([C@@H](O)[C@@H]1O)[C@@]1(C)CC(=O)C(O)=C(C)[C@@H]1C[C@H]3OC(=O)[C@H](OC(=O)C=C(C)C)[C@@H]24 [BRUSATOL]	0.003 (≈ 0.00576 µM)	1.27	3.03	98	–
COC(=O)[C@]12OC[C@@]34[C@@H](CC5=C(C)C(=O)C(O)=C[C@]5(C)[C@H]3[C@@H](O)[C@@H]1O)OC(=O)[C@H](OC(=O)CC(C)C)[C@@H]24 [DEHYDROBRUCEINE A]	0.046 (≈ 0.0884 µM)	–	–	–	–
CC1=CC(=O)[C@@H](O)[C@]2(C)[C@H]3[C@@H](O)[C@H](O)[C@]4(CO)OC[C@@]35[C@@H](C[C@@H]12)OC(=O)[C@H](O)[C@]54O [YADANZIOLIDE A]	0.031 (≈ 0.0727 µM)	–	–	–	–
COC(=O)[C@]12OC[C@]34[C@H]([C@@H](O)[C@@H]1O)[C@@]1(C)C=C(O[C@@H]5O[C@H](CO)[C@@H](O)[C@H](O)[C@H]5O)C(=O)[C@@H](C)[C@@H]1C[C@H]3OC(=O)[C@H](OC(C)=O)[C@@H]24 [YADANZIOSIDE F]	–	–	–	–	IC50 (Plasmodium falciparum [8]): 5 µg/mL (≈ 7.78 µM)
COC(=O)[C@]12OC[C@]34[C@H]([C@@H](O)[C@@H]1O)[C@@]1(C)CC(=O)C(O[C@@H]5O[C@H](CO)[C@@H](O)[C@H](O)[C@H]5O)=C(C)[C@@H]1C[C@H]3OC(=O)[C@H](OC(C)=O)[C@@H]24 [YADANZIOSIDE I]	22 (≈ 34.3 µM)	–	–	–	–
